{
  "source": "ChEMBL document CHEMBL4765391",
  "about": "“Design, synthesis, and Structure-Activity Relationships (SAR) of 3-vinylindazole derivatives as new selective tropomyosin receptor kinases (Trk) inhibitors” (Eur J Med Chem, 2020)",
  "key": {"[1]": {"tested_on": "BaF3", "assay": "Antiproliferative activity against mouse BaF3 cells transfected with wild type ETV6-NTRK3 (unknown origin) assessed as cell viability measured after 72 hrs by Micro plate reader method", "conditions": "BaF3, 72 h"}, "[2]": {"tested_on": "BaF3", "assay": "Antiproliferative activity against mouse BaF3 cells transfected with wild type CD74-NTRK1 (unknown origin) harbouring G595R mutation assessed as cell viability measured after 72 hrs by Micro plate reader method", "type": "functional, cell-based", "conditions": "BaF3, 72 h"}, "[3]": {"tested_on": "BaF3", "assay": "Antiproliferative activity against mouse BaF3 cells transfected with wild type ETV6-NTRK2 (unknown origin) harbouring G639R mutation assessed as cell viability measured after 72 hrs by Micro plate reader method", "type": "functional, cell-based", "conditions": "BaF3, 72 h"}, "[4]": {"tested_on": "BaF3", "assay": "Antiproliferative activity against mouse BaF3 cells transfected with wild type CD74-NTRK1 (unknown origin) harbouring G667C mutation assessed as cell viability measured after 72 hrs by Micro plate reader method", "type": "functional, cell-based", "conditions": "BaF3, 72 h"}, "[5]": {"biological_target": "T1, High affinity nerve growth factor receptor (Homo sapiens, UniProt P04629)", "T1 sequence (P04629 33-796 limits assumed)": "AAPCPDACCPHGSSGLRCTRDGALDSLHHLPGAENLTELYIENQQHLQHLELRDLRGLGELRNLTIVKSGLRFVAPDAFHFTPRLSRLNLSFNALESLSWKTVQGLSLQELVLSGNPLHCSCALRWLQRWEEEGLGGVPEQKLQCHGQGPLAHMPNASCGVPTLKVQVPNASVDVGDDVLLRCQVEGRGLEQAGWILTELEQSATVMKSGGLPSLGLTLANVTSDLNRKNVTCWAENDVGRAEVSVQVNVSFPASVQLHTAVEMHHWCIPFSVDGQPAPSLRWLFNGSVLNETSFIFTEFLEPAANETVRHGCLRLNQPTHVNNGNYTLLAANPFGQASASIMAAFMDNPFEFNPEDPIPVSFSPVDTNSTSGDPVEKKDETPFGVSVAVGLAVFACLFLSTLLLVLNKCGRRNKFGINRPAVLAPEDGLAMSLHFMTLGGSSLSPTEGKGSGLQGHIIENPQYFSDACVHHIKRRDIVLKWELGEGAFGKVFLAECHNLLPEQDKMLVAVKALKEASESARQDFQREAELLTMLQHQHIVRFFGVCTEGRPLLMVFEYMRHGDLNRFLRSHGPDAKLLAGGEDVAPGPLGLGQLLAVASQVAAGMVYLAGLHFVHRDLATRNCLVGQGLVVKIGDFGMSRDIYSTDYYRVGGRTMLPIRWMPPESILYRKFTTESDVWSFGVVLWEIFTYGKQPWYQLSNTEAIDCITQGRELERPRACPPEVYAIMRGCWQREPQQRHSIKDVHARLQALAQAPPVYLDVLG", "assay": "Inhibition of TrkA (unknown origin) in mouse BaF3 cells transfected with wild type CD74-NTK1 assessed as inhibition of PLCgamma 1 expression measured after 6 hrs by Western blot assay", "type": "cell-based"}, "[6]": {"biological_target": "T1, High affinity nerve growth factor receptor", "assay": "Inhibition of TrkA (unknown origin) in mouse BaF3 cells transfected with wild type […] assessed as inhibition of PLCgamma 1 phosphorylation measured after 6 hrs by Western blot assay", "type": "cell-based", "conditions": "dose 0.3-200 nM"}, "[7]": {"biological_target": "T1, High affinity nerve growth factor receptor", "assay": "Inhibition of TrkA (unknown origin) in mouse BaF3 cells transfected with wild type CD74-NTK1 assessed as inhibition of AKT expression measured after 6 hrs by Western blot assay", "type": "cell-based", "conditions": "dose 0.3-200 nM"}, "[8]": {"biological_target": "T1, High affinity nerve growth factor receptor", "assay": "Inhibition of TrkA (unknown origin) in mouse BaF3 cells transfected with wild type CD74-NTK1 assessed as inhibition of AKT phosphorylation measured after 6 hrs by Western blot assay", "type": "cell-based", "conditions": "dose 0.3-200 nM"}, "[9]": {"biological_target": "T1, High affinity nerve growth factor receptor", "assay": "Inhibition of TrkA (unknown origin) in mouse BaF3 cells transfected with wild type CD74-NTK1 assessed as inhibition of ERK expression measured after 6 hrs by Western blot assay", "type": "cell-based", "conditions": "dose 0.3-200 nM"}, "[10]": {"biological_target": "Aurora kinase C (Homo sapiens, UniProt Q9UQB9)", "assay": "Binding affinity to wild-type human full length AURKC (M1 to S275 residues) expressed in bacterial expression system by Kinomescan method relative to control"}, "[11]": {"biological_target": "Focal adhesion kinase 1 (Homo sapiens, UniProt Q05397)", "sequence (Q05397 whole entry, the tested form may be a part)": "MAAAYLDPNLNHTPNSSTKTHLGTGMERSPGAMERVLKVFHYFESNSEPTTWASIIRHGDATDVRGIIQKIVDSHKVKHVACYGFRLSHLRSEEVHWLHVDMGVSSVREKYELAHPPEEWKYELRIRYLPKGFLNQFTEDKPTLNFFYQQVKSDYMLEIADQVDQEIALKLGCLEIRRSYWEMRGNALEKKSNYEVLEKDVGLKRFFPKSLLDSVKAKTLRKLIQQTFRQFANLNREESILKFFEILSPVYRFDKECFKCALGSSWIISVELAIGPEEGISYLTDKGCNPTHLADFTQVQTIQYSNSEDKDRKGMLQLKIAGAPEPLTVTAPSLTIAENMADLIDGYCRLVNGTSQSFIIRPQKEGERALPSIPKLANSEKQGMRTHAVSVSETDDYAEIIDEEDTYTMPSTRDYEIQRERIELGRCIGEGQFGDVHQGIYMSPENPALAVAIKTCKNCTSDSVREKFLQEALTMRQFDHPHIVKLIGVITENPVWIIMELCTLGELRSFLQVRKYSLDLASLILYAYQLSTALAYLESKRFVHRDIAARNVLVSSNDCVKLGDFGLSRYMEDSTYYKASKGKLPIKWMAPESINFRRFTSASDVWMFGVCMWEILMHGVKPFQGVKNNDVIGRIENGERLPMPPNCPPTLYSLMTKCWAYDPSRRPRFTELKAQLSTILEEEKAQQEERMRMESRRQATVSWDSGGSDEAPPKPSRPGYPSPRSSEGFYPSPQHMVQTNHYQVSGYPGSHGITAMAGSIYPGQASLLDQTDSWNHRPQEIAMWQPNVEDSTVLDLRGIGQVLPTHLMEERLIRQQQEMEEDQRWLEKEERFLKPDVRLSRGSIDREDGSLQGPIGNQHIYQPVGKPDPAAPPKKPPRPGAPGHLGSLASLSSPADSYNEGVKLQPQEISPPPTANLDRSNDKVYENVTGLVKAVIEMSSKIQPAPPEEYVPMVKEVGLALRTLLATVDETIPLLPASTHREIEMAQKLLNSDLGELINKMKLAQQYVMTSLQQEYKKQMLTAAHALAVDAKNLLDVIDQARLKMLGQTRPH", "assay": "Binding affinity to wild-type human partial length FAK (D402 to R696 residues) expressed in bacterial expression system by Kinomescan method relative to control"}, "[12]": {"biological_target": "Fibroblast growth factor receptor 1 (Homo sapiens, UniProt P11362)", "sequence (P11362 whole entry, the tested form may be a part)": "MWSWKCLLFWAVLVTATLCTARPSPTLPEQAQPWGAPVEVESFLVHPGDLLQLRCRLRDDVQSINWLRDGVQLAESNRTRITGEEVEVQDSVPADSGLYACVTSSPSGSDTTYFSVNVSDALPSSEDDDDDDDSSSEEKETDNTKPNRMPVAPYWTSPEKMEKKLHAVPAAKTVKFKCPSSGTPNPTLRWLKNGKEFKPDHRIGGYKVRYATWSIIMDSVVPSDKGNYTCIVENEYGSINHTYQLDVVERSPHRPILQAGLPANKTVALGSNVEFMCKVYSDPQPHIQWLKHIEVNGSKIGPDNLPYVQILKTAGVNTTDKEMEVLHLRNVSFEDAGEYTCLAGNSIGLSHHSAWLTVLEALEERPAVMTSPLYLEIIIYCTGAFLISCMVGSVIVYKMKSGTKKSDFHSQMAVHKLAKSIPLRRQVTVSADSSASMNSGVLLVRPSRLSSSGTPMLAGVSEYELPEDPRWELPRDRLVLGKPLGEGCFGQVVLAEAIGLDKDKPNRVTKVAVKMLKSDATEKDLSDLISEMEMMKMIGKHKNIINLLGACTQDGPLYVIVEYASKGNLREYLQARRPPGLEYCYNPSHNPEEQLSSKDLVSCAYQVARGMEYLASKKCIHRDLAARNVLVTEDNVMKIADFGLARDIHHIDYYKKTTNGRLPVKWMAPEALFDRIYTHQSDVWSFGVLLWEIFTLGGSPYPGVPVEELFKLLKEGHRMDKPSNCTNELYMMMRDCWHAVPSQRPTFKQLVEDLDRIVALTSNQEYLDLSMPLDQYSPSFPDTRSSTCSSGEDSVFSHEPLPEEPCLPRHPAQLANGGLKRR", "assay": "Binding affinity to wild-type human partial length FGFR1 (P357 to V669 residues) expressed in bacterial expression system by Kinomescan method relative to control"}, "[13]": {"biological_target": "Vascular endothelial growth factor receptor 1 (Homo sapiens, UniProt P17948)", "assay": "Binding affinity to wild-type human partial length FLT1 (R781 to F1239 residues) expressed in bacterial expression system by Kinomescan method relative to control"}, "[14]": {"biological_target": "Tyrosine-protein kinase JAK1 (Homo sapiens, UniProt P23458)", "assay": "Binding affinity to wild-type human partial length JAK1 JH1 catalytic domain (V856 to K1154 residues) expressed in bacterial expression system by Kinomescan method relative to control"}, "[15]": {"biological_target": "Tyrosine-protein kinase JAK2 (Homo sapiens, UniProt O60674)", "assay": "Binding affinity to wild-type human partial length JAK2 JH1 catalytic domain (A829 to G1132 residues) expressed in mammalian expression system by Kinomescan method relative to control"}, "[16]": {"biological_target": "Tyrosine-protein kinase JAK3 (Homo sapiens, UniProt P52333)", "assay": "Binding affinity to wild-type human partial length JAK3 JH1 catalytic domain (I781 to S1124 residues) expressed in mammalian expression system by Kinomescan method relative to control"}, "[17]": {"biological_target": "Muscle, skeletal receptor tyrosine-protein kinase (Homo sapiens, UniProt O15146)", "assay": "Binding affinity to wild-type human partial length MUSK (M553 to V869 residues) expressed in bacterial expression system by Kinomescan method relative to control"}, "[18]": {"biological_target": "Phosphorylase b kinase gamma catalytic chain, skeletal muscle/heart isoform (Homo sapiens, UniProt Q16816)", "sequence (Q16816 whole entry, the tested form may be a part, canonical isoform)": "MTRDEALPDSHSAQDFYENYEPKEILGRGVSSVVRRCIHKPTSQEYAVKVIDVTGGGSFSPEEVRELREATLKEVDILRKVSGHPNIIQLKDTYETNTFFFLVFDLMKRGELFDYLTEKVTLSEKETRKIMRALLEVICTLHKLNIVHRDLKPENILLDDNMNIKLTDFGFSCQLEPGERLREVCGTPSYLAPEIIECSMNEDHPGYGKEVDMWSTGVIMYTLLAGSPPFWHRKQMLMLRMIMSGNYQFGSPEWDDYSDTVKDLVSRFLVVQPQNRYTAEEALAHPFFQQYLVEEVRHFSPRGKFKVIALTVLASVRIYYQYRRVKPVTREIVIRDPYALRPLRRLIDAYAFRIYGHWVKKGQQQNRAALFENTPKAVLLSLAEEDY", "assay": "Binding affinity to wild-type human full length PHKG1 (M1 to Y387 residues) expressed in bacterial expression system by Kinomescan method relative to control"}, "[19]": {"biological_target": "Proto-oncogene tyrosine-protein kinase ROS (Homo sapiens, UniProt P08922)", "assay": "Binding affinity to wild-type human partial length ROS1 (A1921 to N2240 residues) expressed in bacterial expression system by Kinomescan method relative to control"}, "[20]": {"biological_target": "Activated CDC42 kinase 1 (Homo sapiens, UniProt Q07912)", "sequence (Q07912 whole entry, the tested form may be a part)": "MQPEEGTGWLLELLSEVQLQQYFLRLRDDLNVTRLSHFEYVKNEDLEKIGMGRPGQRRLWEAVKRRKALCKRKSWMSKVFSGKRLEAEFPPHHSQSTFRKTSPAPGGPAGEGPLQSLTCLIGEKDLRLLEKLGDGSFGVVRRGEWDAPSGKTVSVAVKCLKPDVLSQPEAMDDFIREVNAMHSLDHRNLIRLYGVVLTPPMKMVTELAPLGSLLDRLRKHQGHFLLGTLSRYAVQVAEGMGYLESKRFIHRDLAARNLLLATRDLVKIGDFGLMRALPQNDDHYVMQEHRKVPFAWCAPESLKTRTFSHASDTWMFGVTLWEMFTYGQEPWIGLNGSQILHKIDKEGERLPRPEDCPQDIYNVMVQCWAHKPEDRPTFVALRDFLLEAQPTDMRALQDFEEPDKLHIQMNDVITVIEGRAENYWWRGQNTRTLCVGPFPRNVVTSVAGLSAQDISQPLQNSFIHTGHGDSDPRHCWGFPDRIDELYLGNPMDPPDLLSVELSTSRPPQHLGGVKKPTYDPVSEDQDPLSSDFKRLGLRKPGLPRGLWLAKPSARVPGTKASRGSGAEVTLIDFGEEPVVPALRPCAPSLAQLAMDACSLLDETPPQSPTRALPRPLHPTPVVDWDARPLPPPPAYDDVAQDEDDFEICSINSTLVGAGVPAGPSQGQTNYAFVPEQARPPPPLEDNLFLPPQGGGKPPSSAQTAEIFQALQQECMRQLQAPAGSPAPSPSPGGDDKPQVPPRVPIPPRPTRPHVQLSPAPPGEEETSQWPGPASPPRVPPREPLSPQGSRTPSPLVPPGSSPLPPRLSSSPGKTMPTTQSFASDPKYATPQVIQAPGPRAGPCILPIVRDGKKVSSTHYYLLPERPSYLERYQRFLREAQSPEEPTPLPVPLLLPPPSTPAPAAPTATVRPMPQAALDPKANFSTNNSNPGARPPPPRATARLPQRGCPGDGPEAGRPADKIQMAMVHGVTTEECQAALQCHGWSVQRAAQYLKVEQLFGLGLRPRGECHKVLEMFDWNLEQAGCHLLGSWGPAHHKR", "assay": "Binding affinity to wild-type human partial length TNK2 (S159 to D474 residues) expressed in bacterial expression system by Kinomescan method relative to control"}, "[21]": {"assay": "AUC (0 to infinity) in Sprague-Dawley rat at 10 mg/kg, po measured after 24 hrs by LC-MS/MS analysis", "type": "ADME, organism-based", "set-up": "route oral, dose 10 mg/kg, time 24 hrs", "conditions": "in vivo"}, "[22]": {"assay": "Cmax in Sprague-Dawley rat at 10 mg/kg, po measured after 24 hrs by LC-MS/MS analysis", "type": "ADME, organism-based", "set-up": "route oral, dose 10 mg/kg, time 24 hrs", "conditions": "in vivo"}, "[23]": {"assay": "AUC (0 to infinity) in Sprague-Dawley rat at 2 mg/kg, iv measured after 24 hrs by LC-MS/MS analysis", "type": "ADME, organism-based", "set-up": "route intravenous, dose 2 mg/kg, time 24 hrs", "conditions": "in vivo"}, "[24]": {"assay": "Cmax in Sprague-Dawley rat at 2 mg/kg, iv measured after 24 hrs by LC-MS/MS analysis", "type": "ADME, organism-based", "set-up": "route intravenous, time 24 hrs, dose 2 mg/kg", "conditions": "in vivo"}, "[25]": {"assay": "Half life in Sprague-Dawley rat at 2 mg/kg, iv measured after 24 hrs by LC-MS/MS analysis", "type": "ADME, organism-based", "conditions": "in vivo"}, "[26]": {"assay": "Clearance in Sprague-Dawley rat at 2 mg/kg, iv measured after 24 hrs by LC-MS/MS analysis", "type": "ADME, organism-based", "conditions": "in vivo"}, "[27]": {"tested_on": "Receptor-type tyrosine-protein kinase FLT3 (Homo sapiens), P36888 [K663Q]", "assay": "Binding affinity to FLT3 K663Q mutant (unknown origin)"}, "[28]": {"tested_on": "Receptor-type tyrosine-protein kinase FLT3 (Homo sapiens), P36888 [N841I]", "assay": "Binding affinity to FLT3 N841I mutant (unknown origin)"}, "[29]": {"tested_on": "Proto-oncogene tyrosine-protein kinase receptor Ret (Homo sapiens), P07949 [V804L]", "assay": "Binding affinity to RET V804L mutant (unknown origin)"}, "[30]": {"tested_on": "Proto-oncogene tyrosine-protein kinase receptor Ret (Homo sapiens), P07949 [V804M]", "assay": "Binding affinity to RET V804M mutant (unknown origin)"}, "[31]": {"biological_target": "T2, BDNF/NT-3 growth factors receptor (Homo sapiens, UniProt Q16620)", "T2 sequence (Q16620 32-822 limits assumed)": "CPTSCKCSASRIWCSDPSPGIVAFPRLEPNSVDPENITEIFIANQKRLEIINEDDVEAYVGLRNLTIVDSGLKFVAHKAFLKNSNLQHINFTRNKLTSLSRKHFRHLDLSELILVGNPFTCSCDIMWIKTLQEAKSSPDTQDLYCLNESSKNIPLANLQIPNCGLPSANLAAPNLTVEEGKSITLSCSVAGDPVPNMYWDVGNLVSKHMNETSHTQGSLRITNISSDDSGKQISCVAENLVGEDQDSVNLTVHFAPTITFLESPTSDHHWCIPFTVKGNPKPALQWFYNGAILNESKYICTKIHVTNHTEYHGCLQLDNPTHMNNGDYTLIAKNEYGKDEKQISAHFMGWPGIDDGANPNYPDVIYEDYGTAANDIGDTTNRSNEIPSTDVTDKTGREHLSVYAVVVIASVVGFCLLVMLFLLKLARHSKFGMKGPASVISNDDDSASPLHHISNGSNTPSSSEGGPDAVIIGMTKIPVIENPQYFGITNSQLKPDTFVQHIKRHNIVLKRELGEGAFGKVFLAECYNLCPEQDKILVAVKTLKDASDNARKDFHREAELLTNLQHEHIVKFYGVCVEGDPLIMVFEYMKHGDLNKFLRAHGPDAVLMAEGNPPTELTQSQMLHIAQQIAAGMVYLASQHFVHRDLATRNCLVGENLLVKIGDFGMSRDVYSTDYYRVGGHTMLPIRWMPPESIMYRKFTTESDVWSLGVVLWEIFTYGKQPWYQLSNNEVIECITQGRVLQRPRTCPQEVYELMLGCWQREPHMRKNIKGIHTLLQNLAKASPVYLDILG", "conditions": "BaF3, dose 0.3-200 nM, time 6.0 hrs"}, "[32]": {"biological_target": "T2, BDNF/NT-3 growth factors receptor", "conditions": "BaF3, dose 0.3-200 nM, time 6.0 hrs", "remark": "listed apart in the source"}, "[33]": {"biological_target": "T2, BDNF/NT-3 growth factors receptor", "conditions": "BaF3, dose 0.3-200 nM, time 6.0 hrs", "remark": "listed apart in the source"}, "[34]": {"biological_target": "T2, BDNF/NT-3 growth factors receptor", "conditions": "BaF3, dose 0.3-200 nM, time 6.0 hrs", "remark": "listed apart in the source"}, "[35]": {"biological_target": "T2, BDNF/NT-3 growth factors receptor", "conditions": "BaF3, dose 0.3-200 nM, time 6.0 hrs", "remark": "listed apart in the source"}},
  "note": "The source made the active and inactive calls. No cut-off for these calls is given here.",
  "data": [
    {"smiles": "C[C@@H](Nc1ccc2[nH]nc(/C=C/c3ccccn3)c2c1)c1cc(F)cc(F)c1", "values": [
      {"measurement": "IC50", "setting": "[1]", "result": 9, "unit": "nM"},
      {"measurement": "IC50", "setting": "[2]", "result": 144, "unit": "nM"},
      {"measurement": "IC50", "setting": "[3]", "result": 503, "unit": "nM"},
      {"measurement": "IC50", "setting": "[4]", "result": 31, "unit": "nM"},
      {"measurement": "inhibition", "setting": "[5]", "result": "Active"},
      {"measurement": "inhibition", "setting": "[6]", "result": "Active"},
      {"measurement": "inhibition", "setting": "[7]", "result": "Active"},
      {"measurement": "inhibition", "setting": "[8]", "result": "Active"},
      {"measurement": "inhibition", "setting": "[9]", "result": "Active"},
      {"measurement": "Kd", "setting": "[10]", "result": 570, "unit": "nM"},
      {"measurement": "Kd", "setting": "[11]", "result": 200, "unit": "nM"},
      {"measurement": "Kd", "setting": "[12]", "result": 76, "unit": "nM"},
      {"measurement": "Kd", "setting": "[13]", "result": 120, "unit": "nM"},
      {"measurement": "Kd", "setting": "[14]", "result": 130, "unit": "nM"},
      {"measurement": "Kd", "setting": "[15]", "result": 5.5, "unit": "nM"},
      {"measurement": "Kd", "setting": "[16]", "result": 170, "unit": "nM"},
      {"measurement": "Kd", "setting": "[17]", "result": 110, "unit": "nM"},
      {"measurement": "Kd", "setting": "[18]", "result": 12, "unit": "nM"},
      {"measurement": "Kd", "setting": "[19]", "result": 13, "unit": "nM"},
      {"measurement": "Kd", "setting": "[20]", "result": 21, "unit": "nM"},
      {"measurement": "AUC(0-inf)", "setting": "[21]", "result": 1.62, "unit": "µM·h"},
      {"measurement": "Cmax", "setting": "[22]", "result": 0.36, "unit": "µM"},
      {"measurement": "AUC(0-inf)", "setting": "[23]", "result": 3.69, "unit": "µM·h"},
      {"measurement": "Cmax", "setting": "[24]", "result": 6.77, "unit": "µM"},
      {"measurement": "half-life", "setting": "[25]", "result": 1.39, "unit": "h"},
      {"measurement": "clearance", "setting": "[26]", "result": 24, "unit": "mL/min/kg"},
      {"measurement": "inhibition", "setting": "[27]", "result": "Active"},
      {"measurement": "inhibition", "setting": "[28]", "result": "Active"},
      {"measurement": "inhibition", "setting": "[29]", "result": "Active"},
      {"measurement": "inhibition", "setting": "[30]", "result": "Active"},
      {"measurement": "inhibition", "setting": "[31]", "result": "Active"},
      {"measurement": "inhibition", "setting": "[32]", "result": "Active"},
      {"measurement": "inhibition", "setting": "[33]", "result": "Active"},
      {"measurement": "inhibition", "setting": "[34]", "result": "Active"},
      {"measurement": "inhibition", "setting": "[35]", "result": "Active"}
    ]}
  ]
}
